How the values were obtained:
Experiment in all cases: relative viability (nuclei count vs DMSO), 5 days (fraction); higher = more cells survive
NCI-H1651 = tested on: NCI-H1651
In short: (§1)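 Lung cancer cell lines were pin-tool dosed in 1536-well plates on the day after seeding, with either a lone drug or a fixed anchor-drug dose plus five library-drug doses (not always all listed) in √10 steps. Nuclei were counted on 4× images after 5 days. Relative viability is the ratio of treated-well to vehicle-well nuclei counts, with each value a median of duplicate plates.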

NCI-H2085 = tested on: NCI-H2085
In short: as §1

HCC-827 = tested on: HCC-827
In short: as §1

EPLC-272H = tested on: EPLC-272H
In short: as §1

NCI-H1395 = tested on: NCI-H1395
In short: as §1

NCI-H520 = tested on: NCI-H520
In short: as §1

NCI-H838 = tested on: NCI-H838
In short: as §1

LCLC-103H = tested on: LCLC-103H
In short: as §1

COR-L23 = tested on: COR-L23
In short: as §1

ChaGo-K-1 = tested on: ChaGo-K-1
In short: as §1

NCI-H2087 = tested on: NCI-H2087
In short: as §1

## O=c1cc(N2CCOCC2)oc2c(-c3cccc4c3sc3ccccc34)cccc12 + O=C(c1cc(Cc2n[nH]c(=O)c3ccccc23)ccc1F)N1CCN(C(=O)C2CC2)CC1 [Olaparib] (partner 8 µM)
NCI-H1651; first compound 0.1 µM
  relative viability: 0.179
NCI-H1651; first compound 0.3162 µM
  relative viability: 0.178
NCI-H1651; first compound 1 µM
  relative viability: 0.168
NCI-H2085; first compound 0.01 µM
  relative viability: 0.806
NCI-H2085; first compound 0.03162 µM
  relative viability: 0.813
NCI-H2085; first compound 0.1 µM
  relative viability: 0.775
NCI-H2085; first compound 0.3162 µM
  relative viability: 0.767
NCI-H2085; first compound 1 µM
  relative viability: 0.767
HCC-827; first compound 0.01 µM
  relative viability: 0.695
HCC-827; first compound 0.03162 µM
  relative viability: 0.609
HCC-827; first compound 0.1 µM
  relative viability: 0.623
HCC-827; first compound 0.3162 µM
  relative viability: 0.641
HCC-827; first compound 1 µM
  relative viability: 0.642
EPLC-272H; first compound 0.01 µM
  relative viability: 0.761
EPLC-272H; first compound 0.03162 µM
  relative viability: 0.934
EPLC-272H; first compound 0.1 µM
  relative viability: 0.848
EPLC-272H; first compound 0.3162 µM
  relative viability: 0.776
EPLC-272H; first compound 1 µM
  relative viability: 0.824
NCI-H1395; first compound 0.03162 µM
  relative viability: 0.457
NCI-H1395; first compound 0.1 µM
  relative viability: 0.445
NCI-H1395; first compound 0.3162 µM
  relative viability: 0.467
NCI-H1395; first compound 1 µM
  relative viability: 0.498
NCI-H520; first compound 0.01 µM
  relative viability: 0.42
NCI-H520; first compound 0.03162 µM
  relative viability: 0.406
NCI-H520; first compound 0.1 µM
  relative viability: 0.366
NCI-H520; first compound 0.3162 µM
  relative viability: 0.351
NCI-H520; first compound 1 µM
  relative viability: 0.338
NCI-H838; first compound 0.01 µM
  relative viability: 0.753
NCI-H838; first compound 0.03162 µM
  relative viability: 0.775
NCI-H838; first compound 0.1 µM
  relative viability: 0.851
NCI-H838; first compound 0.3162 µM
  relative viability: 0.769
NCI-H838; first compound 1 µM
  relative viability: 0.749
LCLC-103H; first compound 0.01 µM
  relative viability: 0.718
LCLC-103H; first compound 0.03162 µM
  relative viability: 0.786
LCLC-103H; first compound 0.1 µM
  relative viability: 0.771
LCLC-103H; first compound 0.3162 µM
  relative viability: 0.707
LCLC-103H; first compound 1 µM
  relative viability: 0.749
COR-L23; first compound 0.01 µM
  relative viability: 0.394
COR-L23; first compound 0.03162 µM
  relative viability: 0.352
COR-L23; first compound 0.1 µM
  relative viability: 0.327
COR-L23; first compound 0.3162 µM
  relative viability: 0.318
COR-L23; first compound 1 µM
  relative viability: 0.37
ChaGo-K-1; first compound 0.01 µM
  relative viability: 0.421
ChaGo-K-1; first compound 0.03162 µM
  relative viability: 0.439
ChaGo-K-1; first compound 0.1 µM
  relative viability: 0.434
ChaGo-K-1; first compound 0.3162 µM
  relative viability: 0.447
ChaGo-K-1; first compound 1 µM
  relative viability: 0.447
NCI-H2087; first compound 0.01 µM
  relative viability: 0.544
NCI-H2087; first compound 0.03162 µM
  relative viability: 0.65
NCI-H2087; first compound 0.1 µM
  relative viability: 0.672
NCI-H2087; first compound 0.3162 µM
  relative viability: 0.552
NCI-H2087; first compound 1 µM
  relative viability: 0.587

From the supplement of paper PMC10307832
